According to ChEMBL document CHEMBL1201862, “PubChem BioAssay data set” (2004):
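The compound was tested at five concentrations on cells cultured in 96-well plates, with a 48-hour exposure period. GI50 marks 50% less growth.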 The source made the active and inactive calls. Rule as the data show it: active = GI50 up to about 1.1 µM and inactive = higher.

How the values were obtained:
Experiment in all cases: DTP human tumour cell line panel, 48 h
MOLT-4 = tested on: MOLT-4
SN12C = tested on: SN12C
SK-OV-3 = tested on: SK-OV-3
MDA-MB-435 = tested on: MDA-MB-435
RPMI-8226 = tested on: RPMI-8226
CCRF-CEM = tested on: CCRF-CEM
CAKI-1 = tested on: CAKI-1
786-0 = tested on: 786-0
SR = tested on: SR
HCT-15 = tested on: HCT-15
HCC 2998 = tested on: HCC 2998
SF-295 = tested on: SF-295
NCI/ADR-RES = tested on: NCI/ADR-RES
SF-539 = tested on: SF-539
K562 = tested on: K562
A498 = tested on: A498
ACHN = tested on: ACHN
HT-29 = tested on: HT-29
LOX IMVI = tested on: LOX IMVI
HL-60 = tested on: HL-60

Measured: GI50

Cc1cc(C#N)c(Nc2ccccc2[N+](=O)[O-])s1
28.8 µM: HCT-15
inactive: MOLT-4 55.7 µM | SN12C 19.2 µM | SK-OV-3 26.4 µM | MDA-MB-435 18.8 µM | RPMI-8226 22.6 µM | CCRF-CEM 39.3 µM | CAKI-1 77.8 µM | 786-0 49.9 µM | SR 40.2 µM | HCC 2998 40.8 µM | SF-295 24.8 µM | NCI/ADR-RES 17.4 µM | SF-539 27.7 µM | K562 45.2 µM | A498 37.7 µM | ACHN 58.7 µM

O=C1c2cc3c(cc2NC(c2ccccc2F)C1O)OCO3 (stereo not given)
inactive: MOLT-4 19.5 µM | SN12C 22.2 µM | SK-OV-3 17.7 µM | HT-29 17.6 µM | LOX IMVI 17.9 µM | MDA-MB-435 3.08 µM | RPMI-8226 30.5 µM | CCRF-CEM 14 µM | CAKI-1 25.6 µM | 786-0 15.5 µM | SR 3.74 µM | HCC 2998 15.5 µM | SF-295 12.1 µM | NCI/ADR-RES 10.5 µM | SF-539 12.2 µM | K562 6.85 µM | A498 13.3 µM | ACHN 31.9 µM
5.45 µM: HCT-15

O=C(/C=C/c1ccc(-c2ccccc2[N+](=O)[O-])o1)NCc1ccc(C(=O)NCCc2ccccc2)cc1
> 100 µM: HCT-15
inactive: MOLT-4 > 100 µM | SN12C > 100 µM | SK-OV-3 > 100 µM | HT-29 > 100 µM | LOX IMVI > 100 µM | MDA-MB-435 3.92 µM | RPMI-8226 > 100 µM | CAKI-1 > 100 µM | 786-0 > 100 µM | SR 5.62 µM | HCC 2998 > 100 µM | SF-295 > 100 µM | NCI/ADR-RES > 100 µM | SF-539 > 100 µM | K562 > 100 µM | A498 29.3 µM | ACHN > 100 µM

O=C1CC(NCCCNC2CC(=O)c3c(Br)sc(Br)c32)c2c(Br)sc(Br)c21 (stereo not given)
active: MOLT-4 0.42 µM | RPMI-8226 0.118 µM | CCRF-CEM 0.238 µM | 786-0 0.675 µM | SR 0.798 µM | K562 0.879 µM
inactive: SN12C 1.99 µM | SK-OV-3 4.1 µM | HT-29 2.28 µM | LOX IMVI 1.4 µM | MDA-MB-435 1.39 µM | CAKI-1 2.03 µM | HCC 2998 1.99 µM | SF-295 3.78 µM | NCI/ADR-RES 2.16 µM | SF-539 2.47 µM | ACHN 1.8 µM | HL-60 1.38 µM
1.71 µM: HCT-15

COC(C/C(=C/CO[Si](C(C)C)(C(C)C)C(C)C)C(=O)Nc1ccccc1I)OC
inactive: MOLT-4 11.8 µM | SN12C 26.9 µM | SK-OV-3 28.2 µM | HT-29 29.6 µM | LOX IMVI 16 µM | MDA-MB-435 26.7 µM | RPMI-8226 6.15 µM | CCRF-CEM 9.68 µM | CAKI-1 22.2 µM | 786-0 24.1 µM | SR 7.5 µM | HCC 2998 16.4 µM | SF-295 8.63 µM | NCI/ADR-RES 22.9 µM | SF-539 19.8 µM | K562 14.9 µM | A498 > 100 µM | ACHN 37.8 µM
19.1 µM: HCT-15

CCN(CC)CCNC(=O)c1ccc(I)cc1
inactive: MOLT-4 > 100 µM | SN12C > 100 µM | SK-OV-3 > 100 µM | HT-29 33.3 µM | LOX IMVI > 100 µM | MDA-MB-435 > 100 µM | RPMI-8226 > 100 µM | CCRF-CEM 89.5 µM | CAKI-1 60.4 µM | 786-0 > 100 µM | SR > 100 µM | HCC 2998 > 100 µM | SF-295 > 100 µM | NCI/ADR-RES > 100 µM | SF-539 > 100 µM | K562 > 100 µM | A498 44.3 µM | ACHN > 100 µM
> 100 µM: HCT-15

OCSc1nn(CO)c(=S)s1
18.3 µM: HCT-15
active: SR 0.0643 µM
inactive: MOLT-4 23.4 µM | SN12C 21.2 µM | SK-OV-3 34.4 µM | HT-29 28.1 µM | LOX IMVI 18 µM | MDA-MB-435 18.4 µM | RPMI-8226 25.4 µM | CCRF-CEM 6.79 µM | CAKI-1 31.1 µM | 786-0 23.1 µM | HCC 2998 22.1 µM | SF-295 26.9 µM | NCI/ADR-RES 21.1 µM | SF-539 23.4 µM | K562 20.7 µM | ACHN 25.1 µM | HL-60 18 µM
